Where two headings read alike, the source gives them in different places.
What was measured:
inseminated rats = assay: Antinidation / Nidation Inhibition Test in inseminated rats treated on the 1st day of gestation; format: in vivo, rat; details: for ED50 / ED5 / ED95: Rattus norvegicus, po, STS 593 from trial No. 2; for Female rats pregnant of n, normal / Female rats pregnant of n, total / GHE1 / GHE2 / IHE1 / IHE2 / Implantations per female (-x), normal / Implantations per female (-x), total: mestranol 0.2 mg/kg p.o.
Description: The favorable biological properties of the named compounds of the process according to the invention are to be further illustrated and described in the example of 3-methoxy-14β-15β-methylene-estra-1,3,5(10)-triene-17β-ol (test designation STS 593).
(§1) Gestation and nidation inhibition expressed in % were used as parameters for antifertility effects. GHE1 (gestation inhibitory effect) and IHE1 (nidation inhibitory effect) were related to the inhibition of the total of gestations or nidations, GHE2 and IHE2 were related to the inhibition of normal gestations or nidations within each group. […] GHE1, GHE2, IHE1 and IHE2 were calculated using the following formulae: [formula] n=number of females inseminated in each group v=test group
k=control group (sesame oil)
x=number of all gestations (GHE1) and of normal gestations (GHE2) p. group, respectively
(§2) f=average number (x) of all implantations (IHE1) and of normal implantations (IHE2) p. female inseminated within a group, respectively.
The comparison of the relative incidence of gestations was performed by the Ryan test, the comparison of the number of implantations by the Dunn test.
(§3) For GHE1 and GHE2 the ED (effective doses) for the HE (inhibitory effect) 0%, 50%, and 95% as far as possible were determined by means of the probit analysis. The ED50 for IHE1 and IHE2 were determined graphically.

rats (testicular mass) = assay: Antigonadotrophic activity (testicular mass) in rats; format: in vivo, rat; details: Rattus norvegicus, 120 h; rats; read-out: Effective dose for the HE50, antigonadotrophic
Procedure: The effective dose for the HE50 was close to 0.65 mg/kg of body-wt./5 d, while mestranol has the same effect at a dose as low as 0.15 mg/kg of body-wt./5 d.

[1] = tested on: infantile female Wistar rats; assay: Uterine activity in infantile female Wistar rats; format: in vivo, Wistar rat; details: n=10
Description: STS 593 was weaker than ethynylestradiol by a factor of 9 in its estrogenic properties as shown by the Allen-Doisy test in ovariectomized mice. The compound was only 7% as active as the standard mestranol in producing a uterine response in infantile rats (Table 3), whereas the antiestrogenic properties exceeded those of clomiphene citrate by a factor of 1.4.
Comparison of uterine activity in infantile female
Wistar rats produced by STS 593 and mestranol

infantile rabbit uteri = assay: McPhail test, progestagenic and antiprogestagenic activities in infantile rabbit uteri; format: in vivo; details: progesterone 4 mg/animal s.c. alone, total dose over 4 days; n=6
Description: The HE of 97.3% is significant (Table 5).
Progestagenic and antiprogestagenic activities of STS 593
in infantile rabbit uteri as shown by the McPhail test

[2] = tested on: mice (uterine fresh weight); assay: Uterine activity in mice (dose for doubling uterine fresh weight); format: in vivo, mouse; details: for Uterine response / uterine activity (in words): Table 6; for Total dose for doubling uterine fresh weight: p.o.
Description: (§4) Uterine and contraceptive activities produced by selected
(§5) 14,15-methylene-17-ol-estratrienes in mice

[3] = General statement on antifertility effects and separation from uterine, estrogenic and antigonadotrophic activities; format: in vivo
mice = assay: Contraceptive activity in mice, single application on 1st day of gestation; format: in vivo, mouse; details: for THE, % after single application of 10 mg/kg of body-wt. on the 1st day of gestation p.o.: mice, 10 mg/kg p.o.; for Contraceptive activities related to IHE1 (ranking in words): among the other compounds of Table 6
Procedure: as §1, §2, §3, §4, §5

[4] = determined graphically, read-out: ED 50 for IHE1
[5] = determined graphically, read-out: ED 50 for IHE2
[6] = probit analysis, read-out: ED 50 for GHE1
[7] = probit analysis, read-out: ED 50 for GHE2
[8] = probit analysis, read-out: ED 05 for GHE1
[9] = probit analysis, read-out: ED 05 for GHE2
[10] = probit analysis, read-out: ED 95 for GHE1
[11] = probit analysis, read-out: ED 95 for GHE2

Compound: C#C[C@]1(O)CC[C@H]2[C@@H]3CCc4cc(O)ccc4[C@H]3CC[C@@]21C [Ethynylestradiol, reference compound]
- ED50 (inseminated rats; [4]): 0.37 mg/kg
- ED50 (inseminated rats; [5]): < 0.21 mg/kg
- ED50 (inseminated rats; [6]): ≤ 0.45 mg/kg
- ED50 (inseminated rats; [7]): < 0.3 mg/kg

Compound: C#C[C@]1(O)CC[C@H]2[C@@H]3CCc4cc(OC)ccc4[C@H]3CC[C@@]21C [Mestranol, reference compound]
- ED50 (rats (testicular mass)): 0.15 mg/kg
- Uterine weight (-x) ([1]; mestranol total dose 0.6 per animal over 3 days p.o.): 70.11 mg
- Uterine weight (-x) ([1]; mestranol total dose 6.0 per animal over 3 days p.o.): 95.45 mg
- Female rats pregnant of n, normal (inseminated rats; 1st trial 1975, n=12): 1
- Female rats pregnant of n, total (inseminated rats; 1st trial 1975, n=12): 11
- GHE1 (inseminated rats; 1st trial 1975, n=12): 8.3%
- GHE2 (inseminated rats; 1st trial 1975, n=12): 91.7%
- IHE1 (inseminated rats; 1st trial 1975, n=12): 45.3%
- IHE2 (inseminated rats; 1st trial 1975, n=12): 98.7%
- Implantations per female (-x), normal (inseminated rats; 1st trial 1975, n=12): 0.2
- Implantations per female (-x), total (inseminated rats; 1st trial 1975, n=12): 6.8
- Female rats pregnant of n, normal (inseminated rats; 2nd trial 1978, n=10): 0
- Female rats pregnant of n, total (inseminated rats; 2nd trial 1978, n=10): 6
- GHE1 (inseminated rats; 2nd trial 1978, n=10): 40%
- GHE2 (inseminated rats; 2nd trial 1978, n=10): 100%
- IHE1 (inseminated rats; 2nd trial 1978, n=10): 70.8%
- IHE2 (inseminated rats; 2nd trial 1978, n=10): 100%
- Implantations per female (-x), normal (inseminated rats; 2nd trial 1978, n=10): 0
- Implantations per female (-x), total (inseminated rats; 2nd trial 1978, n=10): 3.8
- ED50 (inseminated rats; [4]): 0.17 mg/kg
- ED50 (inseminated rats; [5]): 0.15 mg/kg
- ED5 (inseminated rats; [8]): 0.097 mg/kg
- ED5 (inseminated rats; [9]): 0.065 mg/kg
- ED50 (inseminated rats; [6]): 0.34 mg/kg
- ED50 (inseminated rats; [7]): 0.163 mg/kg
- ED95 (inseminated rats; [10]): 1.11 mg/kg
- ED95 (inseminated rats; [11]): 0.387 mg/kg

Compound: CC(=O)[C@H]1CC[C@H]2[C@@H]3CCC4=CC(=O)CC[C@]4(C)[C@H]3CC[C@]12C [Progesterone, reference compound]
- McPhail index (-x) (infantile rabbit uteri): 3.0

Compound: COc1ccc2c(c1)CC[C@@H]1[C@@H]2CC[C@]2(C)[C@H](O)C[C@H]3C[C@@]312 [STS 592, 3-methoxy-14β-15β-methylene-estra-1,3,5(10)-triene-17α-ol]
- Uterine response / uterine activity (in words) [2]: distinctly weaker uterine activities
- Total dose for doubling uterine fresh weight [2]: 7.0 μg/animal
- Separation of desirable contraceptive and undesirable estrogenic effects ([3]; mice, among the compounds of Table 6): most favorable separation
- THE, % after single application of 10 mg/kg of body-wt. on the 1st day of gestation p.o. (mice): 35.0%

Compound: COc1ccc2c(c1)CC[C@@H]1[C@@H]2CC[C@]2(C)C(OC(=O)Nc3ccccc3)CC3C[C@@]312 (stereo partly drawn) [STS 594, 17phenylaminocarbnoyloxy-14β,15methylene-estra-1,3,5(10)-triene-3-mehylether]
- Total dose for doubling uterine fresh weight [2]: 100 μg/animal

Compound: COc1ccc2c(c1)CC[C@@H]1[C@@H]2CC[C@]2(C)C(OC(=O)Nc3ccccc3)CC3C[C@@]312 (stereo partly drawn) [STS 595, 17phenylaminocarbonyloxy-14β,15methylene-estra-1,3,5(10)-triene-3-mehylether]
- Total dose for doubling uterine fresh weight [2]: 100 μg/animal

Compound: COc1ccc2c(c1)CC[C@@H]1[C@@H]2CC[C@]2(C)[C@@H](O)C[C@@H]3C[C@]312 [STS 651, 3-methoxy-14α,15α-methylene-estra-1,3,5(10)-triene-17β-ol]
- Uterine response / uterine activity (in words) [2]: strongest uterine response
- Total dose for doubling uterine fresh weight [2]: 0.2 μg/animal
- Contraceptive activities related to IHE1 (ranking in words) (mice): strongest contraceptive activities
- THE, % after single application of 10 mg/kg of body-wt. on the 1st day of gestation p.o. (mice): 84.4%
- ED50 (inseminated rats; [4]): 0.107 mg/kg
- ED50 (inseminated rats; [5]): 0.096 mg/kg
- ED5 (inseminated rats; [8]): 0.059 mg/kg
- ED5 (inseminated rats; [9]): 0.043 mg/kg
- ED50 (inseminated rats; [6]): 0.183 mg/kg
- ED50 (inseminated rats; [7]): 0.11 mg/kg
- ED95 (inseminated rats; [10]): 0.583 mg/kg
- ED95 (inseminated rats; [11]): 0.265 mg/kg

Compound: COc1ccc2c(c1)CC[C@@H]1[C@@H]2CC[C@]2(C)[C@H](O)C[C@@H]3C[C@]312 [STS 652, 3-methoxy-14α,15α-methylene-estra-1,3,5(10)-triene-17α-ol]
- Uterine response / uterine activity (in words) [2]: distinctly weaker uterine activities
- Total dose for doubling uterine fresh weight [2]: 3.0 μg/animal
- Separation of desirable contraceptive and undesirable uterine and antigonadotrophic activities ([3]; in vivo): very favorable separation
- THE, % after single application of 10 mg/kg of body-wt. on the 1st day of gestation p.o. (mice): 60.0%

Compound: COc1ccc2c(c1)CC[C@@H]1[C@@H]2CC[C@@]2(C)[C@@]13C[C@@H]3C[C@]2(C)O [STS 681, 3-methoxy-17α-methyl-14β,15β-methylene-estra-1,3,5(10)-triene-17β-ol]
- Uterine response / uterine activity (in words) [2]: distinctly weaker uterine activities
- Total dose for doubling uterine fresh weight [2]: 0.56 μg/animal
- Antifertility effects (in words) ([3]; in vivo): strong antifertility effects
- Separation of desirable contraceptive and undesirable uterine and antigonadotrophic activities ([3]; in vivo): very favorable separation
- Contraceptive activities related to IHE1 (ranking in words) (mice): strongest contraceptive activities
- THE, % after single application of 10 mg/kg of body-wt. on the 1st day of gestation p.o. (mice): 81.7%
